From a melting point compilation (Tetko et al.; mined from patent text by program, amines drawn as free bases though some values may be those of a salt) come the findings set out here.

Take `CC(=O)N[C@H]1C(n2cc(Cl)cnc2=O)O[C@H](COC(C)=O)[C@@H](OC(C)=O)[C@@H]1OC(C)=O` (stereo not given in full): the melting point fell in the range of 165 to 167 °C.
On to `COCCOc1ccccc1-c1cc(Nc2cccc(S(C)(=O)=O)c2)ncn1`, for which the melting point was 153 to 154 °C.
`COC(=O)/C=C/c1ccc2nn(C)c(C)c2c1C(=O)OC`: the melting point lay within 133 to 135 °C.
The result for `COc1nc(=O)n(-c2ccc(Cl)cc2)c(=O)[nH]1` reads 238 to 241 °C; that for `COc1ccc(C=CC(=O)c2cccc(OCCCCCBr)c2)cc1`, 83 to 84 °C.
The result for `Cn1cc(-c2nnc(-c3ccncc3)o2)c2ccccc21` reads 212 to 214 °C.
Compound `COC(=O)c1cc(N)c(F)c(-c2ccc(Cl)c(OC)c2F)n1` returned a melting point of 204 to 206 °C.
As for `CS(=O)(=O)c1ccc(-c2cnn(CC(F)(F)F)c(=O)c2OC2CCCC2)cc1`, the melting point lay in the range of 148 to 150 °C.
Turning to `NC(=O)c1cc2cc(OC(F)(F)F)cc(NS(=O)(=O)c3cccs3)c2[nH]1`, the melting point is more than 300 °C.
The compound `COc1cc(Cl)cc(C)c1Nc1nc2c(Cl)ccc(C(=O)C(C)(C)C)c2n1C` showed a melting point of 249 to 250 °C.
With `CCNC(=O)c1sc2ccccc2c1[Si](C)(C)C`, the melting point is 131 to 134 °C.
As to `NC1=NS(=O)N=C1NCCCN(Cc1cccc(F)c1)c1ccccn1` (stereo not given), the melting point fell in the range of 160 to 162 °C.
In turn, `c1cc(N2CCCN(c3ccc(-c4ccc5c(c4)OCO5)cn3)CC2)ncc1-c1ccc2c(c1)OCO2` displayed a melting point of 235 to 237 °C.
`O=C(/C=C/c1cccc(Cl)c1)NC1CC1` came in with a melting point of 112 to 113 °C.
Next, `COc1cc2c(cc1OC)CC1(CC2)NC(=O)CC(C)C1=O` (stereo not given): 168 to 169 °C.
The result for `CS(=O)(=O)Nc1c(-c2ccccc2)c(=O)[nH]c2cc(Cl)ccc12` reads 222 to 224 °C.
For the compound `CN(C)c1ccc2[nH]c(-c3cc(NC(=O)c4cccc(OCCCCCCC(=O)NO)c4)ccc3Cl)nc2c1`, the melting point was 140 to 142 °C.
Consider `CC(C)OCc1c(S(C)(=O)=O)ccc(Br)c1Cl`, for which the melting point was 87 to 91 °C.
Compound `CCOc1ccc(-c2c(Cl)c(CN3C(=O)CCC3=O)nc3sc4c(c23)CCN(C(C)=O)C4)cc1` had a melting point of 260 to 262 °C.
`CCc1c(OC)nc2nc(-c3noc(C(F)(F)F)n3)cn2c1C` returned a melting point of 197 to 200 °C.
`Cc1cc2c(cc1C)OC(CCN1CCC3(CC1)CNC(=O)CO3)CO2` (stereo not given) came in with a melting point of 164 to 166 °C.
`COc1cc(N)c(Cl)cc1C(=O)NN1CCN(Cc2ccc(N(C)C)cc2)CC1`: the melting point was 208 to 210 °C.
In the case of `CCOC(=O)c1c(N)c2ccc(C)nc2n(CC)c1=O`, the melting point was in the range of 196 to 198 °C.
In turn, `CC(C)(C)OC(=O)CS(=O)c1cccc(-c2nc(=O)c3ccccc3s2)n1` (stereo not given) displayed a melting point of 159 °C.
As for `CC(C)(C)c1ccc(CCCCC(O)C2CCCCC2)cc1NC(=O)CC1c2ccccc2Oc2ccccc21` (stereo not given), the melting point lay within 147 to 148 °C.
For the compound `CCCCc1nc2c(N)nc3ccccc3c2n1CCCC(C)=NOC`, the melting point lay in the range of 157 to 159 °C.
In the case of `NS(=O)(=O)c1ccc(NN=C2C(=O)Nc3ccc(C(=O)NCCCO)cc32)cc1`, the melting point was more than 230 °C.
The compound `CS(=O)(=O)c1ccc(-c2cc(C(=O)c3cc(-c4ccc(S(C)(=O)=O)cc4)c(N4CCOCC4)s3)sc2N2CCOCC2)cc1` had a melting point of 235 to 236 °C.
Take `O=S1(=O)CCSC(Oc2cccc(Cl)c2)=N1`: the melting point was found to be 170 °C.
Compound `Cc1oc(-c2ccc3ccccc3c2)nc1C=Cc1ccc(/C=C/C=O)cc1` came in with a melting point of 213 to 214 °C.
The result for `CCCCOC(=O)Nc1cccc(NC(=O)C=C(C)OC)c1` reads 100 °C; that for `COc1ccc2c(c1)C13CCN(C)C(C2)C1OCOC3` (stereo not given), 134 to 135 °C.
In the case of `COC(=O)c1nc2nc(C)c(C)c(S)n2n1`, the melting point is 206 to 207 °C.
As for `NC(=O)NN=Cc1ccc(OC2CCCCC2)cc1`, the melting point was in the range of 215 to 217 °C.
The result for `O=C(O)c1ccccc1-c1nc2cc(-c3ccccc3)ccc2s1` reads 177 to 178 °C; that for `Clc1ccc(C2=CCCc3cc(Cl)c(Cl)cc32)cc1`, 106 to 108 °C; that for `Cc1nc(-c2ccccc2)n(-c2ccc(S(N)(=O)=O)cn2)n1`, 203 to 204 °C.
In turn, `CC(=O)c1c(C)c(C)c(C(C)=O)c2c1C(=O)c1ccccc1C2=O` registered a melting point of 222 to 224 °C.
`Cc1nc(-c2ccc(-c3cnc4[nH]c(=O)n(CCC5CCOCC5)c4n3)cc2)n[nH]1` yielded a melting point of 290 to 292 °C.
The compound `CCn1c(CCl)nc2c([N+](=O)[O-])cc(Br)cc21` had a melting point of 154 to 155 °C.
Compound `O=S1(=O)NC(C2CCCCC2)Nc2ccc(S(=O)(=O)N3CCCCC3)cc21` (stereo not given) returned a melting point of 262 to 264 °C.
`CNC(=O)c1ccccc1Sc1ccc(C)cc1[N+](=O)[O-]` registered a melting point of 122 to 123 °C.
Compound `O=C(O)CCC(Cc1ccc(Cl)cc1)(C(=O)C=Cc1ccc(Cl)cc1)c1ccccc1` (stereo not given) returned a melting point of 176 to 178 °C.
As for `Oc1ccc(C(O)CNCCCn2cnc3ccccc32)cc1` (stereo not given), the melting point lay within 146 to 148 °C.
The compound `CC(=O)OCCC(C(N)=O)C1(C)OCCc2c1[nH]c1ccccc21` (stereo not given) gave a melting point of 141 to 143 °C.
As for `O=C(c1ccc(-c2cc3cnc(Nc4cccc(Cl)c4)nc3[nH]2)cc1)N1CCOCC1`, the melting point is more than 250 °C.
In turn, `CC(C)(C)OC(=O)N[C@@H]1C(=O)N(C(=O)C(=O)OC(C)(C)C)[C@@H]1CCC(=O)CO[Si](C)(C)C(C)(C)C` gave a melting point of 102 to 103 °C.
On to `CCn1c2c(nc(-c3ccc(Cl)cc3)c1=O)CCCC2`, for which the melting point fell in the range of 110 to 113 °C.
The result for `N#Cc1cccc(-c2nc(N)cc3cccnc23)c1` reads 102 to 104 °C; that for `CCC1(O)CCC2(C)C(CCC3C4CCC(C5(C)OCCO5)C4(C)CC(=O)C32)C1` (stereo not given), 144 °C; that for `CC(C)(C)OC(=O)N1C[C@@H](Oc2ccc(N)cc2)C[C@@H]1C(=O)Nc1cc(C(C)(C)C)c(O)c(C(C)(C)C)c1`, 104 to 106 °C.
`CCOC(=O)c1c(CCCN(CC)CC)nc2cc(OC)c(OC)cc2c1-c1ccc(OC)c(OC)c1` had a melting point of 96 to 98 °C.
Compound `Cc1ccc(O)c2c1C(=O)C(=O)N2Cc1ccccc1` showed a melting point of 255 to 262 °C.
Next, `Cc1cc(C(F)(F)C(F)(F)F)ccc1NC(=O)c1cccc(I)c1C(=O)NC(C)(C)CS(C)(=O)=O`: 143 to 144 °C; `NC(=O)NC1CCC(=O)c2ccsc21` (stereo not given): 240 to 241 °C.
`Nc1nc(OCc2ccccc2)c2ncn(CCC3COP(=O)(OCc4ccccc4)OC3)c2n1` (stereo not given) had a melting point of 162 to 166 °C.
In turn, `Cc1c(C(=O)O)ccc(S(C)(=O)=O)c1N(C)C` gave a melting point of 113 to 114 °C.
Take `Cc1ccc(Cn2c(=O)cc(C(C)C(=O)O)c3cc(C)ccc32)cc1` (stereo not given): the melting point lay within 188 to 190 °C.
As to `CC(=O)N1CCc2ccc(Cl)cc2C(c2ccc([N+](=O)[O-])cc2)=N1`, the melting point fell in the range of 227 to 229 °C.
In turn, `CCCc1c(O)ccc2c(=O)cc(CCC(=O)OCC)oc12` gave a melting point of 127 to 128 °C.
Regarding `NC(CC(=O)O)C1CC=CCC1` (stereo not given), the melting point fell in the range of 208 to 210 °C.
Next, `CC(C)OC(=O)c1cc(-n2c(=O)[nH]c3c(c2=O)CCC3)c(Br)cc1Br`: 223 to 226 °C; `C[C@H](c1ccccc1)n1c(=O)[nH]c2cc(Cl)cc(Cl)c2c1=O`: 205 to 210 °C; `CC(=O)Nc1ncc(/C=C/c2ncc(C(C)(C)C)o2)s1`: 275 °C.
For `CCN(c1ccc(C#N)cc1[N+](=O)[O-])S(=O)(=O)c1ccc(Cl)s1`, the melting point lay in the range of 102 to 103 °C.
`O=C(O)c1ccc(OCCCCCCCCCCO)cc1` gave a melting point of 115 to 117 °C.
Next, `CCCCc1c(C=O)ccc2c(OC)cccc12`: 61.5 to 62.5 °C; `O=C(NNC1NS(=O)(=O)c2ccccc21)Oc1ccccc1` (stereo not given): 216 °C.
Next, `CCOc1c(C(=O)O)oc2c3cc(OC)ccc3n(-c3ccccc3)c12`: 166 to 167 °C; `O=C1C(CCO)Oc2cc(F)ccc2N1Cc1cccc(F)c1` (stereo not given): 78 to 79 °C.
Take `CC(C)(C)OC(=O)Nc1nc(C(=CC(C)(C)C(=O)OCc2ccccc2)C(=O)O)cs1`: the melting point lay in the range of 175 to 177 °C.
In the case of `CNCCCOc1cc(F)c(-c2c(Cl)nc(-c3cnccn3)nc2N[C@@H](C)C(F)(F)F)c(F)c1`, the melting point lay in the range of 48 to 50 °C.
The result for `CCCCc1nc([N+](=O)[O-])c(CSc2ccccc2C(=O)O)n1Cc1ccc(C(=O)O)cc1` reads 246 to 247 °C.
`Nc1nc(SCc2ccc3ccccc3c2)nc(O)c1CCO` displayed a melting point of 192 to 193 °C.
For the compound `O=C(Nc1ccccc1C(F)(F)F)c1ccccc1`, the melting point came to 146 °C.
The compound `COC(=O)c1cc(N)c(C)c(-n2cccc2)c1` had a melting point of 112 °C.
With `Nc1nc(Cl)cc(C=C(Cl)Cl)n1`, the melting point lay in the range of 119 to 120 °C.
Next, `COc1ccc(NN)cc1F`: 46 to 50 °C; `Nc1nc2cc(Cl)c(Cl)cc2[nH]1`: 260 to 262 °C; `N#Cc1c(CCC(=O)O)oc2cc(O)ccc2c1=O`: 300 to 301 °C.
`CC1=Cc2cc(C(=O)O)ccc2OC1(C)C` showed a melting point of 169 to 171 °C.
The compound `CC(C)(C)c1cc(CCc2nnco2)cc(C(C)(C)C)c1O` displayed a melting point of 100 to 101 °C.
As for `Cc1nc(-c2ccc(Br)cc2)n(-c2ccc(S(N)(=O)=O)cn2)n1`, the melting point lay within 221 to 222 °C.
Next, `O=C(Nc1nc(C(Cl)(Cl)Cl)ns1)c1ccc([N+](=O)[O-])cc1`: 214 °C; `CC(=O)Oc1cc(OC(C)=O)c(C)c(C(=O)OCC(Cl)(Cl)Cl)c1C`: 127 to 128 °C.
Compound `CC(C)(C)C(O)C(Cn1cncn1)Oc1ccc(Cl)cc1` (stereo not given) returned a melting point of 103 °C.
Regarding `Cc1cc2ncnn2nc1OCCC(C)(C)CCS(N)(=O)=O`, the melting point lay in the range of 143 to 144 °C.
The result for `COc1ccccc1-c1ccc(OCC(=O)Nc2cscc2C(=O)O)nc1` reads 194 to 197 °C.
Next, `CCOc1c(C)c(N2CCN(c3ccc(F)cc3)CC2)c(C)c2c1OC(C)C2` (stereo not given): 136 to 138 °C; `O=C(c1ccc(Cl)c(Cl)c1)N1CCCC(c2ccc(Br)s2)=N1`: 138 to 140 °C.

As a reminder, the melting point is the temperature, or range, at which the solid turns liquid.
